# Source: the supplement of paper PMC10307832
# Assays:
# Test in all cases: relative viability (nuclei count vs DMSO), 5 days (fraction); higher = more cells survive
# [1] = compound: CCN1C(=O)C2=CC(=C(N=C2N(C1=O)C3CC3)N)C(=O)N + CC1(C)CCC(c2ccc(Cl)cc2)=C(CN2CCN(c3ccc(C(=O)NS(=O)(=O)c4ccc(N[C@H](CCN5CCOCC5)CSc5ccccc5)c(S(=O)(=O)C(F)(F)F)c4)cc3)CC2)C1 [Navitoclax] (partner 0.5 µM)
# How it was run: (§1)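 Dosing by pin tool came one day after lung cancer cell lines were seeded in 1536-well plates, using either one drug or a fixed anchor-drug dose plus five library-drug doses (not always all listed) in √10 steps. After 5 days, nuclei were counted on 4× images. Relative viability is treated-well nuclei count divided by vehicle-well nuclei count, and values are medians of duplicate plates.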
# [2] = compound: CCN1C(=O)C2=CC(=C(N=C2N(C1=O)C3CC3)N)C(=O)N + COc1cc2c(Oc3ccc(NC(=O)C4(C(=O)Nc5ccc(F)cc5)CC4)cc3F)ccnc2cc1OCCCN1CCOCC1 [Foretinib] (partner 0.25 µM)
# How it was run: as §1
# [3] = compound: CCN1C(=O)C2=CC(=C(N=C2N(C1=O)C3CC3)N)C(=O)N + Cc1nc(Nc2ncc(C(=O)Nc3c(C)cccc3Cl)s2)cc(N2CCN(CCO)CC2)n1 [Dasatinib] (partner 0.075 µM)
# How it was run: as §1
# [4] = compound: CCN1C(=O)C2=CC(=C(N=C2N(C1=O)C3CC3)N)C(=O)N + CS(=O)(=O)CCNCc1ccc(-c2ccc3ncnc(Nc4ccc(OCc5cccc(F)c5)c(Cl)c4)c3c2)o1 [Lapatinib] (partner 2 µM)
# How it was run: as §1
# [5] = compound: CCN1C(=O)C2=CC(=C(N=C2N(C1=O)C3CC3)N)C(=O)N + CC(=O)Nc1cccc(-n2c(=O)n(C3CC3)c(=O)c3c(Nc4ccc(I)cc4F)n(C)c(=O)c(C)c32)c1 [Trametinib] (partner 0.02 µM)
# How it was run: as §1
Cell Line,relative viability ([1]; first compound 0.253 µM),relative viability ([1]; first compound 0.8 µM),relative viability ([1]; first compound 2.53 µM),relative viability ([1]; first compound 8 µM),relative viability ([2]; first compound 0.253 µM),relative viability ([2]; first compound 0.8 µM),relative viability ([2]; first compound 2.53 µM),relative viability ([2]; first compound 8 µM),relative viability ([3]; first compound 0.253 µM),relative viability ([3]; first compound 0.8 µM),relative viability ([3]; first compound 2.53 µM),relative viability ([3]; first compound 8 µM),relative viability ([4]; first compound 0.253 µM),relative viability ([4]; first compound 0.8 µM),relative viability ([4]; first compound 2.53 µM),relative viability ([4]; first compound 8 µM),relative viability ([5]; first compound 0.253 µM),relative viability ([5]; first compound 0.8 µM),relative viability ([5]; first compound 2.53 µM),relative viability ([5]; first compound 8 µM)
201T,1.26,1.21,1.14,1.22,1.01,1.07,1.15,1.2,0.559,0.518,0.574,0.496,1.03,0.949,0.967,0.98,0.744,0.702,0.686,0.724
A-427,0.994,0.965,0.95,0.98,1.13,1.13,1.08,1.21,0.729,0.825,0.744,0.779,1.06,0.963,1.05,1.01,0.827,0.7,0.7,0.767
ABC-1,,,,,1.19,0.873,0.908,1.05,0.559,0.473,0.565,0.56,1.08,1.4,0.969,1.29,,,,
BEN,0.074,0.0565,0.0783,0.0841,1.13,0.618,0.69,0.558,0.368,0.267,0.313,0.356,0.776,0.638,0.827,0.697,0.915,0.937,1.11,1.05
CAL-12T,1.14,1.1,1.06,1.2,1.09,1.18,1.09,1.01,0.466,0.377,0.452,0.462,0.528,,0.716,0.859,0.42,0.354,0.386,0.328
COR-L23,1.05,0.939,1.03,1.04,0.91,1.03,1.08,0.947,0.573,0.562,0.456,0.531,0.927,1.03,0.745,1.04,0.581,0.584,0.591,0.592
COR-L 105,0.847,0.74,0.586,0.794,0.748,1.01,0.864,1.01,0.358,0.261,0.264,0.304,0.308,0.339,0.424,0.398,0.478,0.428,0.378,0.47
ChaGo-K-1,1.05,0.782,1.11,0.958,0.873,0.97,0.895,0.948,0.6,0.664,0.614,0.527,,,,,0.922,0.951,0.861,0.875
EKVX,0.929,0.897,0.952,0.989,0.785,0.743,0.875,0.639,0.496,0.479,0.461,0.469,0.23,0.25,0.222,0.196,0.378,0.359,0.372,0.371
EMC-BAC-2,1.2,1.17,1.18,1.32,1.17,1,0.935,1.17,0.35,0.305,0.328,0.318,0.937,0.849,0.859,0.888,0.871,,0.766,0.9
EPLC-272H,0.994,1.26,1.13,1.2,0.84,0.662,0.613,0.686,0.425,0.394,0.377,0.431,0.834,0.867,0.932,1.13,0.261,0.239,0.327,0.298
H3255,0.625,0.509,0.617,0.559,0.856,0.802,0.932,1.01,0.403,0.444,0.425,0.347,0.246,0.216,0.192,0.258,0.587,0.578,0.567,0.636
HARA,1.15,1.13,1.08,1.12,0.884,0.989,0.857,0.926,0.321,0.234,0.233,0.246,0.809,0.688,0.839,0.69,0.513,0.914,0.56,0.545
HCC-15,0.692,0.753,0.683,0.69,1.1,1.05,1.07,0.985,0.634,0.598,0.61,0.598,0.816,0.903,0.782,0.859,0.412,0.382,0.369,0.429
